Experimental data published in US6090958A, “Compounds and compositions for delivering active agents” (Emisphere Technologies, Inc., priority 1997, dated 2000).

Conditions: rat, in vivo, 50 mg/kg
Experimental: An intracolonic dosing composition containing 50 mg/kg of carrier 9 and 250 μg/kg of interferon in 50% propylene glycol was prepared. Rats were administered the dosing composition by intracolonic instillation.
Rats were administered, orally and by intracolonic instillation, dosing solutions of 1 mg/kg of interferon and no carrier.

O=C(O)CCCc1ccc(NC(=O)COc2ccccc2)cc1 [Compound 9]
Mean peak serum interferon concentration: 2611±695
